Experimental data: patent US12215123B2, “Cordycepin-based derivatized compound with anti-tumor effect” (NANJING TECH UNIVERSITY, priority 2022, dated 2025)

Legend:
[1] = tested on: small cell lung cancer cell line H69; experiment: MTT proliferation, small cell lung cancer cell line H69; type: cell-based; details: MTT, 72 hours, H69; read-out: IC50 (μM) of compounds in small cell lung cancer cells, H69
Method: (§1) The method for determining inhibitory activities of the compounds on the proliferation of tumor cells by an MTT method is as follows: a bottle of cells in a good state in an exponential growth phase is added with 0.25% trypsin digestive juice, the digestion makes adherent cells fall off, with 2 to 4×10^4 cells/mL, and a cell suspension is prepared. The cell suspension is inoculated on a 96-well plate, with 90 μL/well, and cultured in a constant-temperature CO2 incubator for 24 hours. The prepared compounds are added for testing, with 10 μL/well, and cultured for 72 hours. An MTT reagent is added into a 96-well plate, with 10 μL/well, and reacts in an incubator for 4 hours to absorb a supernatant, and then dimethyl sulfoxide is added, with 100 μL/well. After a crystal is dissolved, an absorbance of each well at a wavelength of 570 nm is measured by an enzyme-linked immunosorbent assay instrument, and a cell inhibition rate is calculated. An S curve is made with a compound concentration and a corresponding inhibition rate. Therefore, IC50 of a corresponding compound is obtained.
(§2) Anti-tumor dose-effect relationship curves of cordycepin and compounds 1, 2, 4, 5, 7, 8, 10, 12, 16, 18, 21, 23, 24, 35 and 38 in small cell lung cancer cell lines H1048, H446 and H69 were analyzed by an MTT experimental method.

[2] = tested on: MC-38 colon cancer cells; experiment: Mouse transplanted colon cancer model; type: in vivo, C57BL/6j nude mice; details: MC-38 transplanted mice, 28 days, 500 ug/time/animal intragastric (compound daily, antibody every 4 days); control 1,300 mm^3
Method: The feeding of the mouse model in the drug evaluation follows that: mice are fed and treated in a laminar flow cabinet, with 5 nude mice in each cage, drinking water and feedstuffs are added once every 3 days, and paddings are replaced once a week; a number of mice kept in each cage is no more than 5, the mice in separate cages are kept in groups as far as possible, and the mice should not be kept in a single cage; the animal management must conform to the relevant national standards on animal feeding management, and the behavioral needs of animals should be concerned at the same time to avoid unnecessary stress; the normal physiological and behavioral needs of animals, such as defecation, urination, constant body temperature maintenance, normal activities, posture adjustment and reproduction are met; good ventilation and dry animals are kept; the animals can access to drinking water and food at will, and supplementation, replacement and cleaning operations are easily carried out; a solid and safe environment is provided to avoid accidents of animals, such as escaping or limb trapping in a gap; the animals are avoided from being damaged by sharp edges or protrusions; and the animals are not disturbed during observation.
A mouse transplanted colon cancer model was established and a drug was evaluated. […]

[3] = tested on: small cell lung cancer cell line H1048; experiment: MTT proliferation, small cell lung cancer cell line H1048; type: cell-based; details: MTT, 72 hours, H1048; read-out: IC50 (μM) of compounds in small cell lung cancer cells, H1048
Method: as §1, §2

[4] = tested on: gastric cancer cell line BGC-823; experiment: MTT proliferation, gastric cancer cell line BGC-823; type: cell-based; details: MTT, 72 hours, BGC-823; read-out: IC50 (μM) in gastric cancer cells, BGC-823
Method: as §1
(§3) Anti-tumor dose-effect relationship curves of the cordycepin and 40 compounds prepared in gastric cancer cell lines AGS and BGC-823 were analyzed by an MTT experimental method.

[5] = tested on: gastric cancer cell line AGS; experiment: MTT proliferation, gastric cancer cell line AGS; type: cell-based; details: MTT, 72 hours, AGS; read-out: IC50 (μM) in gastric cancer cells, AGS
Method: as §1, §3

[6] = tested on: small cell lung cancer cell line H446; experiment: MTT proliferation, small cell lung cancer cell line H446; type: cell-based; details: MTT, 72 hours, H446; read-out: IC50 (μM) of compounds in small cell lung cancer cells, H446
Method: as §1, §2

## CC(C)OC(=O)[C@H](C)NP(=O)(COCC1CC(C#N)C(n2cnc3c(N)ncnc32)O1)Oc1ccccc1 (stereo partly drawn) [Compound 16]
[1]
  IC50: 23.3 µM
[2]
  tumor size: 480 mm^3
[3]
  IC50: 25.5 µM
[4]
  IC50: 0.19 µM
[5]
  IC50: 0.14 µM
[6]
  IC50: 19.1 µM
